The values that follow come from patent US12599672B2, “KRAS proteolysis targeting chimeras” (PAQ Therapeutics Inc., priority 2023, dated 2026).

Format in all cases: cell-based
For test [1], the target named is T1, KRAS G12V (Homo sapiens, UniProt P01116, G12V).
T1 construct: SW620-KRAS (G12V)-HiBit-KI cell (Pharmaron); host or cells: SW620-KRAS (G12V)-HiBit-KI cells (HiBiT knock-in at the endogenous KRAS locus)
Kind of test: KRAS G12V HiBit assay. Particulars: SW620-KRAS (G12V)-HiBit-KI cells, compound treatment for 24 hours, class symbols. A digest of the protocol: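 Luminescence from lytic Nano-Glo HiBiT detection with LgBiT read KRAS G12V levels after 24 h compound exposure. Dilutions were 10-point, 3-fold, from a 0.3 mM DMSO stock. Degradation activity was normalised to cells given 0.1% DMSO alone.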
A general note: HiBiT is a short tag that completes a luciferase, so light tracks the accessible tagged protein.

The target in test [2] is T2, KRAS G12D (Homo sapiens, UniProt P01116, G12D).
T2 construct: AsPc-1-KRAS (G12D)-HiBit-KI cell (Pharmaron); host or cells: AsPc-1-KRAS (G12D)-HiBit-KI cells (HiBiT knock-in at the endogenous KRAS locus)
Nature of the test: KRAS G12D HiBit assay. Particulars: AsPc-1-KRAS (G12D)-HiBit-KI cell, compound treatment for 24 hours, absolute DC50. A digest of the protocol: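 HiBiT luminescence, detected by adding lytic buffer, substrate and LgBiT protein, served as the KRAS G12D read-out. Compounds, serially diluted 3-fold over 10 points from 0.3 mM DMSO stock, were on cells for 24 h; percent inhibition normalized to cells given 0.1% DMSO only.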

Test [3] concerns the target T3, KRAS (Homo sapiens, UniProt P01116).
T3 construct: endogenous in cells; host or cells: KE39 (KRAS amplified) cells
Nature of the test: KRASamp MSD assay. The conditions noted are these: KE39 (KRAS amplified) cells, treated with test compounds for 24 hr, MSD readout of KRAS degradation. A digest of the protocol:
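Degradation DC50 derived by curve fitting, with KRAS levels quantified by MSD electrochemiluminescence (capture/detection antibodies, recombinant WT KRAS standard). Lysates prepared from KE39 cells (KRAS amplified) exposed to test compounds for 24 hr.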

Setting [4] is: numeric bounds given in place of class symbols.

T1 sequence (P01116 1-188 isoform P01116-2 G12V): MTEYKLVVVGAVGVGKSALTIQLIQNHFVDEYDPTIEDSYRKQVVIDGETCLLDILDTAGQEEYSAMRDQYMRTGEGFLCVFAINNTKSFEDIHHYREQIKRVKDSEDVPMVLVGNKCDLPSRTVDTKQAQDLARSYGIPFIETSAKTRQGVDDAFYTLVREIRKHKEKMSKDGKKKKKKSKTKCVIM
T3 sequence (P01116 1-188 isoform P01116-2): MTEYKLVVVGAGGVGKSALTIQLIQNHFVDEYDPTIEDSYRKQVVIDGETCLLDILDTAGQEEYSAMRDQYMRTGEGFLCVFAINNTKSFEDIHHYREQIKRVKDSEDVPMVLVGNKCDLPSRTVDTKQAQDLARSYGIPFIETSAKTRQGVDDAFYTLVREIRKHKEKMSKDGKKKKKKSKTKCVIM
T2 sequence (P01116 1-188 isoform P01116-2 G12D): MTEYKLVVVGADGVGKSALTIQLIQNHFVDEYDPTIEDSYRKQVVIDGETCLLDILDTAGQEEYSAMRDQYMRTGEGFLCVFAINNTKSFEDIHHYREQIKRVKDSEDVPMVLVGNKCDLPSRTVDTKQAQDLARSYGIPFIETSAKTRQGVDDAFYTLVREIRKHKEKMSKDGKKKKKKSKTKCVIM

For `CCc1cccc2cc(O)cc(-c3ncc4c(N5CCC[C@@](C)(O)C5)nc(OC[C@@]56CCCN5[C@H](COC(=O)N5CCC(CN7CCC(c8ccc9c(c8)n(C)c(=O)n9C8CCC(=O)NC8=O)CC7)CC5)CC6)nc4c3F)c12` (stereo partly drawn) [Compound 145], the DC50 in test [1] is less than 10 nM; in test [2] (class symbols) it was less than 100 nM; in test [3], 1 to 10 nM.

As to `C#Cc1c(F)ccc2cc(O)cc(-c3ncc4c(N5CCC[C@@](C)(O)C5)nc(OCC5(CN6CCC7(CC6)CC(N6CCC(c8cccc9c8n(C)c(=O)n9C8CCC(=O)NC8=O)CC6)C7)CC5)nc4c3F)c12` (stereo partly drawn) [Compound 64], the DC50 is less than 10 nM in test [1], less than 100 nM in test [2] (class symbols) and less than 1 nM in test [3].

Turning to `C#Cc1c(F)ccc2cc(O)cc(-c3ncc4c(N5CCC[C@@](C)(O)C5)nc(OC[C@@]56CCCN5[C@H](COC(=O)N5CCC7(CCC(CN8CCC(c9ccc%10c(c9)n(C)c(=O)n%10C9CCC(=O)NC9=O)CC8)CC7)C5)CC6)nc4c3F)c12` (stereo partly drawn) [Compound 454], the DC50 in test [1] was less than 10 nM; in test [2] (class symbols) it was less than 100 nM; in test [3] it was less than 1 nM.

Consider `C#Cc1c(F)ccc2cc(O)cc(-c3ncc4c(N5CCC[C@@](C)(O)C5)nc(OC[C@@]56CCCN5[C@H](COC(=O)N5CCC7(CC5)CCN7C5CCN(c7ccc8c(c7)n(C)c(=O)n8C7CCC(=O)NC7=O)CC5)CC6)nc4c3F)c12` (stereo partly drawn) [Compound 320, ((3S,7aS)-7a-(((7-(8-ethynyl-7-fluoro-3-hydroxynaphthalen-1-yl)-8-fluoro-4-((R)-3-hydroxy-3-methylpiperidin-1-yl)pyrido[4,3-d]pyrimidin-2-yl)oxy)methyl)hexahydro-1H-pyrrolizin-3-yl)methyl 1-(1-(1-(2,6-dioxopiperidin-3-yl)-3-methyl-2-oxo-2,3-dihydro-1H-benzo[d]imidazol-5-yl)piperidin-4-yl)-1,7-diazaspiro[3.5]nonane-7-carboxylate], for which the figures for the DC50 in test [1], in test [2] (setting [4]) and in test [3] were more than 100 nM, more than 100 nM and not below 10 nM, respectively.

For `C#Cc1c(F)ccc2cc(O)cc(-c3ncc4c(N5CCC[C@@](C)(O)C5)nc(OCC5(CN6CCC(N7CCC(c8cccc9c(C%10CCC(=O)NC%10=O)nn(C)c89)CC7)CC6)CC5)nc4c3F)c12` (stereo partly drawn) [Compound 77], the DC50 in test [1] was less than 10 nM; in test [2] (class symbols) it was less than 100 nM; in test [3] it was 1 to 10 nM.

Regarding `CCc1c(F)ccc2cc(O)cc(-c3ncc4c(N5CCC[C@@](C)(O)C5)nc(OC[C@@]56CCCN5[C@H](COC(=O)N5CC7(CCC(CN8CCC(c9ccc%10c(c9)n(C)c(=O)n%10C9CCC(=O)NC9=O)CC8)CC7)C5)CC6)nc4c3F)c12` (stereo partly drawn) [Compound 448, ((3S,7aS)-7a-(((7-(8-ethyl-7-fluoro-3-hydroxynaphthalen-1-yl)-8-fluoro-4-((R)-3-hydroxy-3-methylpiperidin-1-yl)pyrido[4,3-d]pyrimidin-2-yl)oxy)methyl)hexahydro-1H-pyrrolizin-3-yl)methyl 7-((4-(1-(2,6-dioxopiperidin-3-yl)-3-methyl-2-oxo-2,3-dihydro-1H-benzo[d]imidazol-5-yl)piperidin-1-yl)methyl)-2-azaspiro[3.5]nonane-2-carboxylate], the DC50 in test [1] is less than 10 nM; in test [2] (class symbols) it was less than 100 nM; in test [3] it was less than 1 nM.

Regarding `CCc1c(F)ccc2cc(O)cc(-c3ncc4c(N5CCC[C@@](C)(O)C5)nc(OC[C@@]56CCCN5[C@@H](COC(=O)N5CCC(CCCOc7ccc8c(c7)n(C)c(=O)n8C7CCC(=O)NC7=O)CC5)CC6)nc4c3F)c12` (stereo partly drawn) [Compound 316, ((3R,7aS)-7a-(((7-(8-ethyl-7-fluoro-3-hydroxynaphthalen-1-yl)-8-fluoro-4-((R)-3-hydroxy-3-methylpiperidin-1-yl)pyrido[4,3-d]pyrimidin-2-yl)oxy)methyl)hexahydro-1H-pyrrolizin-3-yl)methyl 4-(3-((1-(2,6-dioxopiperidin-3-yl)-3-methyl-2-oxo-2,3-dihydro-1H-benzo[d]imidazol-5-yl)oxy)propyl)piperidine-1-carboxylate], the figures for the DC50 in test [1], in test [2] (setting [4]) and in test [3] were more than 100 nM, more than 100 nM and not below 10 nM, respectively.

As for `C#Cc1c(F)ccc2cc(O)cc(-c3ncc4c(N5CCC[C@@](C)(O)C5)nc(OCC5(CN6CCC(N7CCC(c8ccc9c(C%10CCC(=O)NC%10=O)nn(C)c9c8)CC7)CC6)CC5)nc4c3F)c12` (stereo partly drawn) [Compound 58], the DC50 in test [1] was less than 10 nM; in test [2] (class symbols) it was less than 100 nM; in test [3], not below 10 nM.

For the molecule `C#Cc1c(F)ccc2cc(O)cc(-c3ncc4c(N5CCC[C@@](C)(O)C5)nc(OCC5(CN6CCC7(CC6)CCN(c6ccc8c(c6)n(C)c(=O)n8C6CCC(=O)NC6=O)CC7)CC5)nc4c3F)c12` (stereo partly drawn) [Compound 52], the DC50 in test [1] was less than 10 nM; in test [2] (class symbols) it was less than 100 nM; in test [3], not below 10 nM.

For the molecule `Cn1c(=O)n(C2CCC(=O)NC2=O)c2ccc(C3CCN(CC4(F)CCN(C(=O)OC[C@@H]5CC[C@]6(COc7nc(N8CCC[C@@](C)(O)C8)c8cnc(-c9cc(O)cc%10ccc(F)cc9%10)c(F)c8n7)CCCN56)CC4)CC3)cc21` (stereo partly drawn) [Compound 446, ((3S,7aS)-7a-(((8-fluoro-7-(7-fluoro-3-hydroxynaphthalen-1-yl)-4-((R)-3-hydroxy-3-methylpiperidin-1-yl)pyrido[4,3-d]pyrimidin-2-yl)oxy)methyl)hexahydro-1H-pyrrolizin-3-yl)methyl 4-((4-(1-(2,6-dioxopiperidin-3-yl)-3-methyl-2-oxo-2,3-dihydro-1H-benzo[d]imidazol-5-yl)piperidin-1-yl)methyl)-4-fluoropiperidine-1-carboxylate], the figures for the DC50 in test [1], in test [2] (class symbols) and in test [3] were less than 10 nM, less than 100 nM and less than 1 nM, respectively.

Regarding `C#Cc1c(F)ccc2cc(O)cc(-c3ncc4c(N5CCC[C@@](C)(O)C5)nc(OC[C@@]56CCCN5[C@H](COC(=O)N5CCC(OCCC#Cc7ccc8c(c7)n(C)c(=O)n8C7CCC(=O)NC7=O)CC5)CC6)nc4c3F)c12` (stereo partly drawn) [Compound 369, ((3S,7aS)-7a-(((7-(8-ethynyl-7-fluoro-3-hydroxynaphthalen-1-yl)-8-fluoro-4-((R)-3-hydroxy-3-methylpiperidin-1-yl)pyrido[4,3-d]pyrimidin-2-yl)oxy)methyl)hexahydro-1H-pyrrolizin-3-yl)methyl 4-((4-(1-(2,6-dioxopiperidin-3-yl)-3-methyl-2-oxo-2,3-dihydro-1H-benzo[d]imidazol-5-yl)but-3-yn-1-yl)oxy)piperidine-1-carboxylate], the DC50 in test [1] was less than 10 nM; in test [2] (class symbols), less than 100 nM; in test [3], 1 to 10 nM.

Turning to `CCc1c(F)ccc2cc(O)cc(-c3ncc4c(N5CCC[C@@](C)(O)C5)nc(OC[C@]56CCCN5[C@H](CCCN5CCC(c7ccc8c(c7)n(C)c(=O)n8C7CCC(=O)NC7=O)CC5)CC6)nc4c3F)c12` (stereo partly drawn) [Compound 473, 3-(5-(1-(3-((3R,7aR)-7a-(((7-(8-Ethyl-7-fluoro-3-hydroxynaphthalen-1-yl)-8-fluoro-4-((R)-3-hydroxy-3-methylpiperidin-1-yl)pyrido[4,3-d]pyrimidin-2-yl)oxy)methyl)hexahydro-1H-pyrrolizin-3-yl)propyl)piperidin-4-yl)-3-methyl-2-oxo-2,3-dihydro-1H-benzo[d]imidazol-1-yl) piperidine-2,6-dione], the figures for the DC50 in test [1], in test [2] (class symbols) and in test [3] were 10 to 100 nM, less than 100 nM and 1 to 10 nM, respectively.
